In BindingDB's records for doi:10.1021/jm301674z (Takeda Pharmaceutical, 2013):

Each molecule was assayed against Baculoviral IAP repeat-containing protein 2 (Homo sapiens) (UniProt Q13490) (assay: Inhibition of human recombinant His-tagged cIAP1 protein BIR3 domain (250 to 350 amino acid residues) using biotinylated-Smac as substrate after overnight incubation by HTRF assay).
Baculoviral IAP repeat-containing protein 2 (Homo sapiens), sequence (Q13490 whole entry, looked up, the tested form may be a part): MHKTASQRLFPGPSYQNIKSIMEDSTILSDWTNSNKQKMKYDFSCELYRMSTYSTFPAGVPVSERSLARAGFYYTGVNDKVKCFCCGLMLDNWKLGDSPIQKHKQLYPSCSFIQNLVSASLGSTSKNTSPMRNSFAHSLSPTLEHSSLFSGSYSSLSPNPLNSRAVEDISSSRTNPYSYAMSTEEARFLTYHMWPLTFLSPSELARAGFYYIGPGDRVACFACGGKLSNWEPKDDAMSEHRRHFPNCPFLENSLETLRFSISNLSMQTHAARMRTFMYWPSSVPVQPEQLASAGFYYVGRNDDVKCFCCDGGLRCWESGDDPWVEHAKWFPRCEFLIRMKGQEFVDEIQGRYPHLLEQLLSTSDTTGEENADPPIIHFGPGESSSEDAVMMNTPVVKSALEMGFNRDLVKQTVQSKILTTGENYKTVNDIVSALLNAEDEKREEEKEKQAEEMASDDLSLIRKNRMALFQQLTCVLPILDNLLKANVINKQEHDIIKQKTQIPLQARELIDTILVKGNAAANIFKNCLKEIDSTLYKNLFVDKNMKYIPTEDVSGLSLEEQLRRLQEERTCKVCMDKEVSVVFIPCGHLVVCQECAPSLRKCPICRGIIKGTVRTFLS

Compound	IC50
CCO[C@@H]1C[C@@H]2CN(C(=O)[C@@H](NC(=O)[C@H](C)NC)C3CCC(F)(F)CC3)[C@H](C(=O)N[C@@H]3CCOc4ccccc43)CN2C1	1.3 nM
CN[C@@H](C)C(=O)N[C@H](C(=O)N1C[C@H]2C[C@@H](O)CN2C[C@H]1C(=O)N[C@@H]1CCOc2ccccc21)C1CCC(F)(F)CC1	4.9 nM
CN[C@@H](C)C(=O)N[C@H](C(=O)N1C[C@H]2CC(F)(F)CN2C[C@H]1C(=O)N[C@@H]1CCOc2ccccc21)C1CCC(F)(F)CC1	1.7 nM
CN[C@@H](C)C(=O)N[C@H](C(=O)N1C[C@@H]2CCCN2C[C@H]1C(=O)N[C@@H]1CCOc2ccccc21)C1CCC(F)(F)CC1	2.5 nM
CN[C@@H](C)C(=O)N[C@H](C(=O)N1C[C@H]2CCCN2C[C@H]1C(=O)N[C@@H]1CCOc2ccccc21)C1CCOCC1	3.4 nM
CN[C@@H](C)C(=O)N[C@H](C(=O)N1C[C@H]2CCCN2C[C@H]1C(=O)N[C@@H]1CCOc2ccccc21)C1CCC(F)(F)CC1	3.2 nM
CN[C@@H](C)C(=O)N[C@H](C(=O)N1C[C@H]2CCCN2C[C@H]1C(=O)N[C@@H]1CCOc2ccccc21)c1ccccc1	2.6 nM
CN[C@@H](C)C(=O)N[C@H](C(=O)N1C[C@H]2CCCN2C[C@H]1C(=O)N[C@@H]1CCC(=O)c2ccccc21)C1CCCCC1	7.6 nM
CN[C@@H](C)C(=O)N[C@H](C(=O)N1C[C@H]2CCCN2C[C@H]1C(=O)N[C@@H]1CCC(F)(F)c2ccccc21)C1CCCCC1	4 nM
CN[C@@H](C)C(=O)N[C@H](C(=O)N1C[C@H]2CCCN2C[C@H]1C(=O)N[C@H]1CCCc2ccccc21)C1CCCCC1	1300 nM
CN[C@@H](C)C(=O)N[C@H](C(=O)N1C[C@H]2CCCN2C[C@H]1C(=O)N[C@@H]1CCCc2ccccc21)C1CCCCC1	2.7 nM
CN[C@@H](C)C(=O)N[C@H](C(=O)N1C[C@H]2CCCN2C[C@H]1C(=O)N[C@H](C)c1ccccc1)C1CCCCC1	14 nM
